Laboratory results taken from patent US20100221351A1, “Controlled Drug Delivery Using a Thermally Responsive Nanocapsule to Augment Cryoablation” (UNIVERSITY OF SOUTH CAROLINA, priority 2009, published 2010).

Assay: Release of trehalose during dialysis into 1 L water at 37° C.
Format: physicochemical
Details: 0.3 g trehalose in 2 ml water
Procedure: FIG. 2. Release of trehalose (0.3 g) into 1 L water during dialysis under 3 conditions: free dissolved, nanoencapsulated (NE) with cooling/heating between 22 and 37° C. (NE22-37C), and nanoencapsulated kept at 37° C. (NE37C) before dialysis.
This nanocapsule has been used to physically encapsulate a small molecular weight hydrophilic trehalose (Mw=342 Da) for its intracellular delivery and controlled release. […] Clearly, the free dissolved trehalose was completely released from the dialysis bag in ˜2 hr, while trehalose release from the other two conditions with nanoencapsulation is much slower. The release for the sample kept 37° C. (i.e., NE37C) reached equilibrium at approximately 4 hours while it is approximately 3 hours for the sample with cooling and heating between 22 and 37° C. (i.e., NE22-37C). Moreover, approximately 11.3 and 4.3 mg trehalose were still retained in the NE37C and NE22-37C samples under the equilibrium state, respectively. […] In other words, a quick release of the nanoencapsulated trehalose can be achieved by thermally cycling the trehalose loaded nanocapsule between 22 and 37° C.

## OC[C@H]1O[C@H](O[C@H]2O[C@H](CO)[C@@H](O)[C@H](O)[C@H]2O)[C@H](O)[C@@H](O)[C@@H]1O [free dissolved trehalose, trehalose]
  time to complete release of trehalose from the dialysis bag: ~2 h
